In publication PMC10415124 (Nucleic Acids Research, 2023):

Experiments:
Type in all cases: binding
[1] = molecular target: T1, MmTRPT1 (tRNA 2′-phosphotransferase 1) (Mus musculus, UniProt Q8K3A2); assay: crystal structure
T1 sequence (Q8K3A2 1-249): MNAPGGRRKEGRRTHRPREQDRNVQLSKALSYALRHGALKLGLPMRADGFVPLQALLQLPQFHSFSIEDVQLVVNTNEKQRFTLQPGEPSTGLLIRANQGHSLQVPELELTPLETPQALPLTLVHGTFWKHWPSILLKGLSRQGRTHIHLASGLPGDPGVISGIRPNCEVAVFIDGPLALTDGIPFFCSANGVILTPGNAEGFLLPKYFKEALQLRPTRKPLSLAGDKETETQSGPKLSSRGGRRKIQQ

[2] = molecular target: T2, HsTRPT1 (tRNA 2′-phosphotransferase 1) (Homo sapiens, UniProt Q86TN4); assay: crystal structure
T2 sequence (Q86TN4 1-253): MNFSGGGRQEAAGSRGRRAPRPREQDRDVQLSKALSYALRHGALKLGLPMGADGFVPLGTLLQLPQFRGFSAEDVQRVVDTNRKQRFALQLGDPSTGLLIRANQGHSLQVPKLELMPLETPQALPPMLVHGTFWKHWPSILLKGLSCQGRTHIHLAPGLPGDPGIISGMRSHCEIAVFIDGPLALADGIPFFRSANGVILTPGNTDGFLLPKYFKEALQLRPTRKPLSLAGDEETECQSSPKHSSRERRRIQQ

[3] = molecular target: T2, HsTRPT1 (tRNA 2′-phosphotransferase 1); assay: ITC
[4] = molecular target: T1, MmTRPT1 (tRNA 2′-phosphotransferase 1); assay: ITC
[5] = molecular target: T3, ScTRPT1 (TPT1, tRNA 2′-phosphotransferase) (Saccharomyces cerevisiae, UniProt Q12272); assay: ITC and co-crystal structure
T3 sequence (Q12272 1-230): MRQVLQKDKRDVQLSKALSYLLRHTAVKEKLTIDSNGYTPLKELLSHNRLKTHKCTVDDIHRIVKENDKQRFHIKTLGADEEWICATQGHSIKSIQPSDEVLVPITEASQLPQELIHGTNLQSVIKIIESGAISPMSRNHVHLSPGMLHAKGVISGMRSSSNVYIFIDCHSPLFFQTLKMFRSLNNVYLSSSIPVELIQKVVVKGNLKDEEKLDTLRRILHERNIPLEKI

| crystal structure [1] | Kd [3] [µM] | Kd [4] [µM] | Kd [5] [µM] | Structure (SMILES) | crystal structure [2] |
| --- | --- | --- | --- | --- | --- |
| binds to the HsTRPT1/MmTRPT1 monomer | – | – | – | Nc1ncnc2c1ncn2[C@@H]1O[C@H](COP(=O)(O)OP(=O)(O)OC[C@H]2O[C@H](OP(=O)(O)O)[C@H](O)[C@@H]2O)[C@@H](O)[C@H]1O [ADPRp] | electron density map clearly showed that one ADPRp molecule |
| – | 11.8 ± 0.32 | 22.3 ± 0.75 | 23.8 ± 1.88 | NC(=O)c1ccc[n+]([C@@H]2O[C@H](COP(=O)([O-])OP(=O)(O)OC[C@H]3O[C@@H](n4cnc5c(N)ncnc54)[C@H](O)[C@@H]3O)[C@@H](O)[C@H]2O)c1 [NAD^+] | – |
